Structures can show the parent of a compound that is named as a salt. Where two headings read alike, the source gives them in different places.
Experiments:
[1] = molecular target: c-fms (Homo sapiens (Human), UniProt P07333); experiment: Autophosphorylation fluorescence polarization competition immunoassay for c-fms inhibition; format: biochemical; settings: 10 nM c-fms, 1 mM ATP; average of three independent measurements
Experimental: The assay buffer used was 100 mM 4-(2-hydroxyethyl)piperazine1-ethanesulfonic acid (HEPES), pH 7.5, 1 mM 1,4-dithio-DL-threitol (DTT), 0.01% (v/v) Tween-20. Compounds were diluted in assay buffer containing 4% dimethylsulfoxide (DMSO) just prior to the assay. […] The kinase reaction was initiated by adding 2 μL of 5 mM ATP (Sigma) in assay buffer. The final concentrations in the assay were 10 nM c-fms, 1 mM ATP, 5 mM MgCl2, 2% DMSO. Control reactions were ran in each plate: in positive and negative control wells, assay buffer (made 4% in DMSO) was substituted for the compound; in addition, positive control wells received 1.2 μL of 50 mM ethylenediaminetetraaceticacid (EDTA). The plates were incubated at room temperature for 45 min. At the end of the incubation, the reaction was quenched with 1.2 μL of 50 mM EDTA (EDTA was not added to the positive control wells at this point; see above). Following a 5-min incubation, each well received 10 μL of a 1:1:3 mixture of anti-phosphotyrosine antibody, 10×, PTK green tracer, 10× (vortexed), FP dilution buffer, respectively (all from PanVera, cat. # P2837). The plate was covered, incubated for 30 min at room temperature and the fluorescence polarization was read on the Analyst. The instrument settings were: 485 nm excitation filter; 530 nm emission filter; Z height: middle of well; G factor: 0.93. […] The reported IC50 values are averages of three independent measurements.

[2] = tested on: mouse bone-marrow derived macrophages; experiment: CSF-1-driven mouse bone-marrow derived macrophages assay (BrDU incorporation); format: cell-based; settings: CSF-1-driven proliferation, 30 hrs culture
Experimental: Macrophages were derived by culturing mouse bone marrow in alpha-MEM supplemented with 10% FCS and 50 ng/ml recombinant mouse CSF-1 in bacteriologic dishes. On the sixth day, macrophages were detached from dishes, washed, and resuspended to 0.05 million cells/ml in alpha-MEM containing 10% FCS. One hundred ul of cell suspension were distributed per well into 96 well culture plates. Wells were further supplemented with the addition of 50 ul media containing 15 ng/ml CSF-1, 3 uM Indomethacin, and 3× of a dilution series of test compounds. The cells were cultured for 30 hrs at 37 degrees and 5% CO2. During the final six hours, cultures were supplemented with an additional 30 ul of media containing a 1:500 dilution of bromodeoxyuridine (BrDU). At the end of the culture period, the plates were spun at 1000 RPM for 1 minute and 130 ul of media was removed with a pipet and replaced with 150 ul of fixative solution for 1 hour@room temperature. The fixative was then dispelled from the plates and the plates allowed to air dry. Incorporation of BrDU into the fixed, dried cells was quantified using a specific ELISA.

c-fms, sequence (P07333 20-972): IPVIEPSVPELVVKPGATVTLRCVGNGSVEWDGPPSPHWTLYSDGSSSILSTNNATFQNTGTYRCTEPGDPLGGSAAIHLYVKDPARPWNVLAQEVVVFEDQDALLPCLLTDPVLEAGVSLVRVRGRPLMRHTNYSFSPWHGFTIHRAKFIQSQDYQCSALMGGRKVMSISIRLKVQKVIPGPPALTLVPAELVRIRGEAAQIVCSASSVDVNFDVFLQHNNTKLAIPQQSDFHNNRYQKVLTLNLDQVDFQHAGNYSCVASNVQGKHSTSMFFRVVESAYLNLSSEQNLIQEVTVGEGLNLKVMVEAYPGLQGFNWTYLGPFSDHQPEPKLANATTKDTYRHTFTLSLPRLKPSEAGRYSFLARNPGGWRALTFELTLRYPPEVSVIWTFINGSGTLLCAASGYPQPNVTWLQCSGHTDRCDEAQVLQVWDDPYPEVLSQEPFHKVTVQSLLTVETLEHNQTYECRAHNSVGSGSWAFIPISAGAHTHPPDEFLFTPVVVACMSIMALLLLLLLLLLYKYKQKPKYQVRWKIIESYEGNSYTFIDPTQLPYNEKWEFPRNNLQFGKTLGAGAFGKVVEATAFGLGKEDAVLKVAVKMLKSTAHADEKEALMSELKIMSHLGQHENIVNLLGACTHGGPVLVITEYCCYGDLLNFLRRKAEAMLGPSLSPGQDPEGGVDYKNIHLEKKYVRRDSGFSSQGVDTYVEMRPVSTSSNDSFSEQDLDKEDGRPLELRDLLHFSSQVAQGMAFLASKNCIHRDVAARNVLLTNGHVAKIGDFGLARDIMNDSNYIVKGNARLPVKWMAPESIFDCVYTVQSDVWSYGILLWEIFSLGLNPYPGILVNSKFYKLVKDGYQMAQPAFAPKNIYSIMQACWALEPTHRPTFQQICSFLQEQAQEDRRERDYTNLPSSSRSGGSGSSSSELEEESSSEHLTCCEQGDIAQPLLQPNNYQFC

| SMILES | IC50 [1] [nM] | IC50 ([2]; Mus musculus, BMDM) [nM] | IC50 ([2]; read-out: BMDM IC50) [nM] |
| --- | --- | --- | --- |
| CC1(C)CC=C(c2nc(C3C[C@@]4(C)O[C@@](C)(C3)[C@H](O)[C@@H]4O)ccc2NC(=O)c2nc(C#N)c[nH]2)CC1 (stereo partly drawn) [Example 18, 4-Cyano-1H-imidazole-2-carboxylic acid[6-[(3-exo)-(6-exo,7-exo-dihydroxy-1,5-dimethyl-8-oxa-bicyclo[3.2.1]oct-3-yl)-2-(4,4-dimethyl-cyclohex-1-enyl)-pyridin-3-yl]-amidetrifluoroacetic acid saft and 4-Cyano-1H-imidazole-2-carboxylic acid[6-[(3-endo)-(6-exo,7-exo-dihydroxy-1,5-dimethyl-8-oxa-bicyclo[3.2.1]oct-3-yl)-2-(4,4-dimethyl-cyclohex-1-enyl)-pyridin-3-yl]-amidetrifluoroacetic acid salt] | 0.72 | 10 | – |
| CC1(C)CC=C(c2cc([C@@]3(O)CC4C=C[C@H](C3)O4)ccc2NC(=O)c2nc(C#N)c[nH]2)CC1 [Example 27, 4-Cyano-N-(2-(4,4-dimethylcyclohex-1-enyl)-4-((3-exo)-3-hydroxy-8-oxabicyclo[3.2.1]oct-6-en-3-yl)phenyl)-1H-imidazole-2-carboxamide] | 0.66 | 6.9 | – |
| CC1(C)CC=C(c2cc([C@H]3C[C@]4(CO)CC[C@](CO)(C3)O4)ccc2NC(=O)c2nc(C#N)c[nH]2)CC1 [Example 4, 4-Cyano-1H-imidazole-2-carboxylic acid[4-[(3-exo)-1,5-bis-hydroxymethyl-8-oxa-bicyclo[3.2.1]oct-3-yl]-2-(4,4-dimethyl-cyclohex-1-enyl)-phenyl]-amide] | 0.72 | 6.6 | – |
| CC1(C)CC=C(c2nc(C3C[C@](C)(CO)O[C@](C)(CO)C3)ccc2NC(=O)c2nc(C#N)c[nH]2)CC1 (stereo partly drawn) [Example 20, 4-Cyano-1H-imidazole-2-carboxylic acid[(4-cis)-(2-cis,6-cis-bis-hydroxymethyl-2,6-dimethyl-tetrahydro-pyran-4-yl)-2-(4,4dimethyl-cyclohex-1-enyl)-pyridin-3-yl]-amide trifluoroacetic acid salt and 4-Cyano-1H-imidazole-2-carboxylic acid[(4-trans)-(2-cis,6-cis-bis-hydroxymethyl-2,6-dimethyl-tetrahydro-pyran-4-yl)-2-(4,4-dimethyl-cyclohex-1-enyl)-pyridin-3-yl]-amide trifluoroacetic acid salt] | 0.41 | 6.5 | – |
| COC[C@@]12C=C[C@@](COC)(C[C@](O)(c3ccc(NC(=O)c4nc(C#N)c[nH]4)c(C4=CCC(C)(C)CC4)c3)C1)O2 [Example 1, 4-Cyano-1H-imidazole-2-carboxylic acid[2-(4,4-dimethyl-cyclohex-1-enyl)-4-[(3-exo)-3-hydroxy-1,5-bis-methoxymethyl-8-oxa-bicyclo[3.2.1]oct-6-en-3-yl]-phenyl]-amide] | 0.86 | 3.2 | – |
| C[C@@H]1C2C=C[C@@H](O2)[C@H](C)[C@@]1(O)c1ccc(NC(=O)c2nc(C#N)c[nH]2)c(C2=CCC(C)(C)CC2)c1 [Example 28] | 16 | 69 | – |
| CC1(C)CC(c2ccc(NC(=O)c3nc(C#N)c[nH]3)c(C3=CCCCC3)n2)CC(C)(C)O1 [Example 16, 4-Cyano-1H-imidazole-2-carboxylic acid[2-cyclohex-1-enyl-6-(2,2,6,6-tetramethyl-tetrahydro-pyran-4-yl)-pyridin-3-yl]-amide] | 1.4 | 8.2 | – |
| CC1(C)CC=C(c2cc(C3C[C@](C)(CO)O[C@](C)(CO)C3)ccc2NC(=O)c2ncc(C#N)[nH]2)CC1 (stereo partly drawn) [Example 14, 4-Cyano-1H-imidazole-2-carboxylic acid[4-cis-(2-cis,6-cis-bis-hydroxymethyl-2,6-dimethyl-tetrahydro-pyran-4-yl)-2-(4,4-dimethyl-cyclohex-1-enyl)-phenyl]-amide (A) and 4-Cyano-1H-imidazole-2-carboxylic acid[4-trans-(2-cis,6-cis-bis-hydroxymethyl-2,6-dimethyl-tetrahydro-pyran-4-yl)-2-(4,4dimethyl-cyclohex-1-enyl)-phenyl]-amide (B)] | 1.1 | – | 4.7 |
| COC[C@@]12CC[C@@](COC)(C[C@@H](c3ccc(NC(=O)c4nc(C#N)c[nH]4)c(C4=CCC(C)(C)CC4)c3)C1)O2 [Example 6, 4-Cyano-1H-imidazole-2-carboxylic acid[4-[(3-endo)-1,5-bis-methoxymethyl-8-oxa-bicyclo[3.2.1]oct-3-yl]-2-(4,4-dimethyl-cyclohex-1-enyl)-phenyl]-amide] | 2.7 | 5 | – |
| CC1(C)CC=C(c2cc(C3=C[C@@]4(CO)C=C[C@@](CO)(C3)O4)ccc2NC(=O)c2nc(C#N)c[nH]2)CC1 [Example 3, 4-Cyano-1H-imidazole-2-carboxylic acid[4-(1,5-bis-hydroxymethyl-8-oxa-bicyclo[3.2.1]octa-2,6-dien-3-yl)-2-(4,4-dimethyl-cyclohex-1-enyl)-phenyl]-amide] | 0.65 | 9.3 | – |
| CC1(C)CC=C(c2cc([C@@]3(O)C[C@]4(CO)CC[C@](CO)(C3)O4)ccc2NC(=O)c2nc(C#N)c[nH]2)CC1 [Example 8, 4-Cyano-1H-imidazole-2-carboxylic acid[2-(4,4-dimethyl-cyclohex-1-enyl)-4-[(3-exo)-3-hydroxy-1,5-bis-hydroxymethyl-8-oxa-bicyclo[3.2.1]oct-3-yl]-phenyl]-amide] | 0.42 | 41 | – |
| COC[C@@]12CC[C@@](COC)(C[C@H](c3ccc(NC(=O)c4nc(C#N)c[nH]4)c(C4=CCC(C)(C)CC4)c3)C1)O2 [Example 7, 4-Cyano-1H-imidazole-2-carboxylic acid[4-((3-exo)-1,5-bis-methoxymethyl-8-oxa-bicyclo[3.2.1]oct-3-yl)-2-(4,4-dimethyl-cyclohex-1-enyl)-phenyl]-amide] | 2 | 3.3 | – |
| CC1(C)CC=C(c2cc([C@@H]3C[C@]4(CO)CC[C@](CO)(C3)O4)ccc2NC(=O)c2nc(C#N)c[nH]2)CC1 [Example 5, 4-Cyano-1H-imidazole-2-carboxylic acid[4-[(3-endo)-1,5-bis-hydroxymethyl-8-oxa-bicyclo[3.2.1]oct-3-yl]-2-(4,4-dimethyl-cyclohex-1-enyl)-phenyl]-amide] | 0.47 | 4.7 | – |
| CC1(C)CC=C(c2cc([C@@H]3C[C@@]4(C)O[C@@](C)(C3)[C@H](O)[C@@H]4O)ccc2NC(=O)c2nc(C#N)c[nH]2)CC1 [Example 13, 4-Cyano-1H-imidazole-2-carboxylic acid[4-(3-endo)-(6-exo,7-exo-dihydroxy-1,5-dimethyl-8-oxa-bicyclo[3.2.1]oct-3-yl)-2-(4,4-dimethyl-cyclohex-1-enyl)-phenyl]-amide] | 0.81 | 2.9 | – |
| CC1(C)CC=C(c2cc([C@@]3(O)C[C@]4(C)C=C[C@](C)(C3)O4)ccc2NC(=O)c2nc(C#N)c[nH]2)CC1 [Example 9, 4-Cyano-1H-imidazole-2-carboxylic acid[2-(4,4-dimethyl-cyclohex-1-enyl)-4-((3-exo)-3-hydroxy-1,5-dimethyl-8-oxa-bicyclo[3.2.1]oct-6-en-3-yl)-phenyl]-amide] | 1.1 | 4.8 | – |
| C[C@]12CC(c3ccc(NC(=O)c4nc(C#N)c[nH]4)c(C4=CCCCC4)n3)C[C@](C)(O1)[C@H](O)[C@@H]2O (stereo partly drawn) [Example 19, 4-Cyano-1H-imidazole-2-carboxylic acid[2-cyclohex-1-enyl-6-[(3-exo)-(6-exo,7-exo-dihydroxy-1,5-dimethyl-8-oxa-bicyclo[3.2.1]oct-3-yl]-pyridin-3-yl]-amidetrifluoroacetic acid salt and 4-Cyano-1H-imidazole-2-carboxylic acid[2-cyclohex-1-enyl-6-[(3-endo)-(6-exo,7-exo-dihydroxy-1,5-dimethyl-8-oxa-bicyclo[3.2.1]oct-3-yl]-pyridin-3-yl]-amidetrifluoroacetic acid salt] | 2.9 | 27 | – |
| CC1(C)CC=C(c2cc(C3=C[C@@H]4C=C[C@H](C3)O4)ccc2NC(=O)c2ncc(C#N)[nH]2)CC1 [Example 26, N-(4-(8-oxabicyclo[3.2.1]octa-2,6-dien-3-yl)-2-(4,4-dimethylcyclohex-1-enyl)phenyl)-4-cyano-1H-imidazole-2-carboxamide (A) and N-(4-(8-oxabicyclo[3.2.1]octa-3,6-dien-3-yl)-2-(4,4dimethylcyclohex-1-enyl)phenyl)-4cyano-1H-imidazole-2-carboxamide (B)] | 7.1 | – | 59 |
